Laboratory results as given in ChEMBL document CHEMBL2069287, “Salidroside protects human erythrocytes against hydrogen peroxide-induced apoptosis” (J Nat Prod, 2012).
Activity calls are given as the source filed them. No cut-off for these calls is given here.

Experiments:
[1] = test system: Erythrocyte; experiment: Cytoprotective activity against H202-induced eryptosis in human erythrocytes assessed as viable cells at 100 uM after 24 hrs by PE-annexinV/calcein flow cytometric assay (reference value: 63.38%); format: functional; details: read-out: Activity
[2] = test system: Erythrocyte; experiment: Cytoprotective activity against H202-induced eryptosis in human erythrocytes assessed as very early apoptotic cells at 300 uM after 24 hrs by PE-annexinV/calcein flow cytometric assay (reference value: 27.15%); format: functional
[3] = Induction of eryptosis in human erythrocytes assessed as early apoptotic cells at 100 uM after 24 hrs by PE-annexinV/calcein flow cytometric assay (reference value: 2.59%); format: cell-based; details: erythrocyte
[4] = test system: Erythrocyte; experiment: Cytoprotective activity in human erythrocytes assessed as decrease in caspase-3-mediated FAM-DEVD-FMK cleavage at 300 uM after 24 hrs by fluorometric assay (reference value: 0.28%); format: functional; parameters: scale not given: the % may be the effect or the level left
[5] = test system: Erythrocyte; experiment: Cytoprotective activity against H202-induced eryptosis in human erythrocytes assessed as late apoptotic cells at 100 uM after 24 hrs by PE-annexinV/calcein flow cytometric assay (reference value: 0.13%); format: functional
[6] = test system: Erythrocyte; experiment: Cytoprotective activity in human erythrocytes assessed as protection against H202-induced hemolysis at 50 to 100 uM from 2 to 24 hrs by spectrophotometry; format: functional, cell-based
[7] = test system: Erythrocyte; experiment: Cytoprotective activity in human erythrocytes assessed as decrease in H202-induced caspase-3-mediated FAM-DEVD-FMK cleavage at 100 uM after 24 hrs by fluorometric assay (reference value: 51.22%); format: functional; parameters: scale not given: the % may be the effect or the level left
[8] = test system: Erythrocyte; experiment: Cytoprotective activity in human erythrocytes assessed as decrease in STS-mediated caspase3 activation at 300 uM after 24 hrs by fluorimetric assay (reference value: 58.78%); format: functional; parameters: scale not given: the % may be the effect or the level left
[9] = test system: Erythrocyte; experiment: Cytoprotective activity in human erythrocytes assessed as decrease in H202-induced caspase-3-mediated FAM-DEVD-FMK cleavage at 300 uM after 24 hrs by fluorometric assay (reference value: 51.22%); format: functional; parameters: scale not given: the % may be the effect or the level left
[10] = test system: Erythrocyte; experiment: Cytoprotective activity in human erythrocytes assessed as decrease in ionomycin-induced cytosolic free calcium level at 300 uM after 24 hrs by Fluo4 staining-based assay (reference value: 57.79%); format: functional; parameters: scale not given: the % may be the effect or the level left
[11] = Toxicity in human erythrocytes assessed as hemolysis up to 800 uM after 2 hrs by spectrophotometry; format: cell-based; details: erythrocyte
[12] = Toxicity in human erythrocytes assessed as hemolysis up to 400 uM after 24 hrs by spectrophotometry; format: cell-based; details: erythrocyte
[13] = Induction of eryptosis in human erythrocytes assessed as viable cells at 300 uM after 24 hrs by PE-annexinV/calcein flow cytometric assay (reference value: 97.21%); format: cell-based, Erythrocyte; details: read-out: Activity
[14] = test system: Erythrocyte; experiment: Cytoprotective activity in human erythrocytes assessed as decrease in H202-induced caspase-3-mediated FAM-DEVD-FMK cleavage after 24 hrs by fluorometric assay; format: functional, cell-based
[15] = Antioxidant activity in human erythrocytes assessed as decrease in H202-induced ROS production at 100 uM after 24 hrs by DCF-based flow cytometric analysis (reference value: 68.32%); format: functional, Erythrocyte; parameters: scale not given: the % may be the effect or the level left
[16] = Induction of eryptosis in human erythrocytes assessed as late apoptotic cells at 100 uM after 24 hrs by PE-annexinV/calcein flow cytometric assay (reference value: 0%); format: cell-based; details: erythrocyte
[17] = Induction of eryptosis in human erythrocytes assessed as early apoptotic cells at 300 uM after 24 hrs by PE-annexinV/calcein flow cytometric assay (reference value: 2.59%); format: cell-based; details: erythrocyte
[18] = Induction of eryptosis in human erythrocytes assessed as viable cells at 100 uM after 24 hrs by PE-annexinV/calcein flow cytometric assay (reference value: 97.21%); format: cell-based, Erythrocyte; details: read-out: Activity
[19] = test system: Erythrocyte; experiment: Cytoprotective activity against H202-induced eryptosis in human erythrocytes assessed as early apoptotic cells at 300 uM after 24 hrs by PE-annexinV/calcein flow cytometric assay (reference value: 9.34%); format: functional
[20] = test system: Erythrocyte; experiment: Cytoprotective activity against H202-induced eryptosis in human erythrocytes assessed as very early apoptotic cells at 100 uM after 24 hrs by PE-annexinV/calcein flow cytometric assay (reference value: 27.15%); format: functional
[21] = Induction of eryptosis in human erythrocytes assessed as late apoptotic cells at 300 uM after 24 hrs by PE-annexinV/calcein flow cytometric assay (reference value: 0%); format: cell-based; details: erythrocyte
[22] = test system: Erythrocyte; experiment: Cytoprotective activity against H202-induced eryptosis in human erythrocytes assessed as late apoptotic cells at 300 uM after 24 hrs by PE-annexinV/calcein flow cytometric assay (reference value: 0.13%); format: functional
[23] = test system: Erythrocyte; experiment: Cytoprotective activity against H202-induced apoptosis in human erythrocytes assessed as decrease in phosphatidylserine externalization after 24 hrs by PE-annexinV/Fluor4 flow cytometric analysis; format: functional, cell-based
[24] = test system: Erythrocyte; experiment: Cytoprotective activity in human erythrocytes assessed as decrease in ionomycin-induced cytosolic free calcium level at 100 uM after 24 hrs by Fluo4 staining-based assay (reference value: 1.76%); format: functional; parameters: scale not given: the % may be the effect or the level left
[25] = test system: Erythrocyte; experiment: Antioxidant activity in human erythrocytes assessed as decrease in H202-induced ROS production after 24 hrs by DCF-based flow cytometric analysis; format: functional, cell-based
[26] = Induction of eryptosis in human erythrocytes assessed as very early apoptotic cells at 100 uM after 24 hrs by PE-annexinV/calcein flow cytometric assay (reference value: 0.2%); format: cell-based; details: erythrocyte
[27] = Antioxidant activity in human erythrocytes assessed as decrease in H202-induced ROS production at 300 uM after 24 hrs by DCF-based flow cytometric analysis (reference value: 68.32%); format: functional, Erythrocyte; parameters: scale not given: the % may be the effect or the level left
[28] = test system: Erythrocyte; experiment: Cytoprotective activity against H202-induced eryptosis in human erythrocytes assessed as viable cells at 300 uM after 24 hrs by PE-annexinV/calcein flow cytometric assay (reference value: 63.38%); format: functional; details: read-out: Activity
[29] = test system: Erythrocyte; experiment: Cytoprotective activity against H202-induced eryptosis in human erythrocytes assessed as early apoptotic cells at 100 uM after 24 hrs by PE-annexinV/calcein flow cytometric assay (reference value: 9.34%); format: functional
[30] = test system: Erythrocyte; experiment: Cytoprotective activity in human erythrocytes assessed as decrease in STS-mediated caspase3 activation at 100 uM after 24 hrs by fluorimetric assay (reference value: 58.78%); format: functional; parameters: scale not given: the % may be the effect or the level left
[31] = test system: Erythrocyte; experiment: Cytoprotective activity in human erythrocytes assessed as decrease in caspase-3-mediated FAM-DEVD-FMK cleavage at 100 uM after 24 hrs by fluorometric assay (reference value: 0.28%); format: functional; parameters: scale not given: the % may be the effect or the level left
[32] = Induction of eryptosis in human erythrocytes assessed as very early apoptotic cells at 300 uM after 24 hrs by PE-annexinV/calcein flow cytometric assay (reference value: 0.2%); format: cell-based; details: erythrocyte
[33] = test system: Erythrocyte; experiment: Cytoprotective activity against H202-induced apoptosis in human erythrocytes assessed as decrease in cytosolic free calcium level after 24 hrs by PE-annexinV/Fluor4 flow cytometric analysis; format: functional, cell-based
[34] = test system: Erythrocyte; experiment: Cytoprotective activity in human erythrocytes assessed as protection against H202-induced hemolysis from 2 to 24 hrs by spectrophotometry; format: functional, cell-based

**Q.** With `OC[C@H]1O[C@@H](OCCc2ccc(O)cc2)[C@H](O)[C@@H](O)[C@@H]1O` [SALIDROSIDE] as the compound, how does the viability at 100 µM [1] read?
**A.** 70.4%

**Q.** What about the Activity [2] of the same compound?
**A.** 14.16%

**Q.** And the Activity [3]?
**A.** 2.38%

**Q.** And the Activity [4]?
**A.** 0.22%

**Q.** What about the Activity [5] of the same compound?
**A.** 0.18%

**Q.** And the Activity [6]?
**A.** Active

**Q.** And the Activity [7]?
**A.** 42.12%

**Q.** What about the Activity [8] of the same compound?
**A.** 47.16%

**Q.** And the Activity [9]?
**A.** 37.71%

**Q.** What about the Activity [10] of the same compound?
**A.** 46.24%

**Q.** What about the Activity [11] of the same compound?
**A.** Non-toxic

**Q.** And the Activity [12]?
**A.** Non-toxic

**Q.** And the viability at 24 h, 300 µM [13]?
**A.** 97.5%

**Q.** And the Activity [14]?
**A.** Dose-dependent effect

**Q.** What about the Activity [15] of the same compound?
**A.** 58.82%

**Q.** And the Activity [16]?
**A.** 0%

**Q.** What about the Activity [17] of the same compound?
**A.** 2.46%

**Q.** And the viability at 24 h, 100 µM [18]?
**A.** 97.5%

**Q.** And the Activity [19]?
**A.** 11.08%

**Q.** What about the Activity [20] of the same compound?
**A.** 17.01%

**Q.** And the Activity [21]?
**A.** 0%

**Q.** And the Activity [22]?
**A.** 0.11%

**Q.** And the Activity [23]?
**A.** Dose-dependent effect

**Q.** What about the Activity [24] of the same compound?
**A.** 48.77%

**Q.** And the Activity [25]?
**A.** Dose-dependent effect

**Q.** And the Activity [26]?
**A.** 0.14%

**Q.** And the Activity [27]?
**A.** 51.39%

**Q.** And the viability at 300 µM [28]?
**A.** 74.7%

**Q.** What about the Activity [29] of the same compound?
**A.** 12.38%

**Q.** What about the Activity [30] of the same compound?
**A.** 49.38%

**Q.** And the Activity [31]?
**A.** 0.23%

**Q.** And the Activity [32]?
**A.** 0.04%

**Q.** And the Activity [33]?
**A.** Dose-dependent effect

**Q.** And the Activity [34]?
**A.** Dose-dependent effect
